Data from patent US20130267547A1, “PRODRUGS UTILIZING A TRANSPORTER-DIRECTED UPTAKE MECHANISM” (VIRGINIA COMMONWEALTH UNIVERSITY, priority 2010, published 2013).

How the values were obtained:
[1] = system: plasma esterases; assay: Stability in human plasma; type: in vitro ADME
Procedure: The stability of SLPV was determined by incubating SLPV (20 μM) in human plasma from one healthy adult at 37° C. for 18 hours.

[2] = system: fresh human placental villous tissue; assay: Incubation of DGLPV with fresh human placental villous tissue (HPLC of medium and tissue); type: in vitro ADME
Procedure: DGLPV was synthesized as described above. The amount of DGLPV in the media originally containing 100 uM DGLPV was measured using HPLC as described above, and again after a 30 minute incubation with fresh human placental villous tissue in the same media.
To confirm that the DGLPV was taken up by the tissue and hydrolyzed therein, HPLC was used to measure the amount of free LPV present in the tissue.

[3] = system: BeWo cells; assay: Uptake of non-radiolabelled LPV esters in BeWo cells (LC-MS/MS); type: cell-based, human; details: for Rank order of uptake: non-radiolabelled esters
Procedure: (§1) NMR spectroscopy was performed on the compounds including GLPV (FIG. 14A). […] An LC-MS/MS assay was developed and validated to determine concentrations of the novel compounds in biological matrices and fluids, as shown in FIG. 14B.

[4] = Hydrolysis of LPV esters in vivo in rats
Procedure: as §1

[5] = system: BeWo cells; assay: Uptake of 3H-lopinavir, 3H-succinyl-lopinavir and 3H-carnitine-succinyl-lopinavir by BeWo cells, with and without transport inhibitors; details: for inhibition at 100 µM / inhibition at 250 µM: Homo sapiens, BeWo, read-out: Extent of Uptake Inhibition
Procedure: FIG. 10. […] BeWo cells (passage 38) were incubated with the compounds for 10 minutes at 37° C. or 4° C. in Dulbecco's phosphate buffered saline containing 0.05% bovine serum albumin. After incubation, the cells were washed with the cold buffer (lacking the compounds), and compounds were extracted from the cells into methanol followed by liquid scintillation analysis.
Specifically, bromosulfophthalein (BSP) is an inhibitor of several organic anion transporters (OATs; gene family SLC22A), as well as organic anion transporting polypeptides (OATPs; gene family SLCO). […] Finally, taurocholate is a classic substrate for bile salt transporters, including the sodium-dependent taurocholate transporter (NTCP; SLC10A1), the apical bile salt transporter (ASBT; SLC10A2), and certain OATPs.
The BeWo cell line is originally derived from a human choriocarcinoma. The BeWo cell line (Schwartz clone; passage 30) was a gift. BeWo cells in these studies is used between passages 30-70. BeWo cells are cultured in high glucose Dulbecco's modified Eagle's medium (DMEM) supplemented with 10% heat inactivated fetal bovine serum (FBS).

[6] = system: human primary cytotrophoblast cells; assay: Uptake of 3H-SLPV and 3H-LPV by primary cytotrophoblast cells; type: cell-based
From the text: We also isolated primary cytotrophoblast cells from one term (39 weeks gestation) placenta delivered by cesarean section. […] (FIG. 7).

[7] = system: P-glycoprotein; details: mice; cited from earlier work

With `Cc1cccc(C)c1OCC(=O)NC(Cc1ccccc1)[C@H](CC(Cc1ccccc1)NC(=O)[C@H](C(C)C)N1CCCNC1=O)OC(=O)COCC(=O)O` (some centres unmarked) [DGLPV, Diglycolic-Lopinavir] the half-life ([1]; human, plasma, preliminary data, read-out: Plasma hydrolysis half-life (converted)) was about 2 h, the “Amount of DGLPV in the medium after incubation with tissue” value ([2]; 100 uM DGLPV, 30 minute incubation) was “decrease in DGLPV in the medium” and the “Hydrolysis in the tissue to release free lopinavir, in words” value ([2]; human placental villous tissue) was “can also be hydrolyzed in the tissue”. For the same compound, the “Transport into human tissues, in words” value ([2]; human placental villous tissue) was “can also be transported into human tissues”, the “Temperature dependence of uptake, in words” value (“Temperature dependence” for short) [3] was “temperature dependent” and the “Rank order of uptake” value [3] was “GLPV>SLPV>DGLPV”. For the same compound, the “Hydrolysis in vivo, in words” value [4] was “capable of being hydrolyzed in vivo”.

With `Cc1cccc(C)c1OCC(=O)N[C@@H](Cc1ccccc1)[C@@H](O)C[C@H](Cc1ccccc1)NC(=O)[C@H](C(C)C)N1CCCNC1=O` [LPV, lopinavir, reference compound] the “Extent of Uptake Inhibition” value ([5]; Cold (4° C.), BeWo cells) was 10%, the inhibition at 100 µM [5] was 9% and the inhibition at 250 µM [5] was 7%.

With `Cc1cccc(C)c1OCC(=O)NC(Cc1ccccc1)C(CC(Cc1ccccc1)NC(=O)C(C(C)C)N1CCCNC1=O)OC(=O)CCC(=O)O` (centres unmarked) [SLPV, Succinyl-lopinavir] the “Reduction of uptake in the presence of linoleic acid” value ([5]; 40 μM linoleic acid (LA), BeWo cells, p<0.05) was 34%.

In the case of `Cc1cccc(C)c1OCC(=O)NC(Cc1ccccc1)[C@H](CC(Cc1ccccc1)NC(=O)[C@H](C(C)C)N1CCCNC1=O)OC(=O)CCC(=O)O` (some centres unmarked) [SLPV, Succinyl-lopinavir], the “Effect of ABC transporter inhibitor MK571 on uptake, in words” value [5] is reported as “slight increase in uptake”, the “Effect of arachidonic acid on uptake, in words” value [5] is reported as “no effect” and the “Temperature dependence” value [5] is reported as “inhibited at reduced temperatures”. The “Extent of Uptake Inhibition” value ([5]; Cold (4° C.), BeWo cells) was 62%, the inhibition at 100 µM [5] was -1% and the inhibition at 250 µM [5] was 7%. For the same compound, the “Temperature dependence” value ([5]; human, 10 minutes) was “significantly less than at 37 °C”, the “Extent of Uptake Inhibition” value ([5]; linoleic acid (40 mM), BeWo cells) was 40% and the “Extent of Uptake Inhibition” value ([5]; valproic acid (1 mM), BeWo cells) was 5%. The “Temperature dependence” value ([6]; 4° C. vs 37° C., cytotrophoblasts) was “temperature-dependent”, the “Uptake relative to uptake of LPV” value ([6]; human placental cytotrophoblasts, 37° C., after 24 hrs in culture) was 10 fold and the “Stability in human plasma, in words” value ([1]; 20 μM, human plasma from one healthy adult, 37° C., 18 hours) was “completely stable to plasma esterases”. The “Temperature dependence” value [3] was “temperature dependent” and the “Rank order of uptake” value [3] was “GLPV>SLPV>DGLPV”.

For `CC(=O)O[C@H]1C(=O)[C@@]2(C)[C@H]([C@H](OC(=O)c3ccccc3)[C@]3(O)C[C@H](OC(=O)[C@H](O)[C@@H](NC(=O)c4ccccc4)c4ccccc4)C(C)=C1C3(C)C)[C@]1(OC(C)=O)CO[C@@H]1C[C@@H]2O` [paclitaxel], the “Fold more drug entering P-glycoprotein deficient Abcb1a−/−/1b−/− fetuses than wild type fetuses” value [7] is given as 16 fold.
